Results reported in ChEMBL document CHEMBL5528048, “Discovery of Novel Potent and Fast BTK PROTACs for the Treatment of Osteoclasts-Related Inflammatory Diseases” (J Med Chem, 2024).
Active and inactive are the calls of the source. No cut-off for these calls is given here.

What was measured:
[1] = molecular target: T1, Protein cereblon/Tyrosine-protein kinase BTK (Homo sapiens, UniProt Q06187+Q96SW2); experiment: PROTAC activity at BTK/CRBN in human MINO cells assessed as BTK protein degradation at 20 nM measured after 24 hrs by Western blotting analysis relative to control; format: cell-based
Target sequence in this assay (Q06187 2-659 limits assumed): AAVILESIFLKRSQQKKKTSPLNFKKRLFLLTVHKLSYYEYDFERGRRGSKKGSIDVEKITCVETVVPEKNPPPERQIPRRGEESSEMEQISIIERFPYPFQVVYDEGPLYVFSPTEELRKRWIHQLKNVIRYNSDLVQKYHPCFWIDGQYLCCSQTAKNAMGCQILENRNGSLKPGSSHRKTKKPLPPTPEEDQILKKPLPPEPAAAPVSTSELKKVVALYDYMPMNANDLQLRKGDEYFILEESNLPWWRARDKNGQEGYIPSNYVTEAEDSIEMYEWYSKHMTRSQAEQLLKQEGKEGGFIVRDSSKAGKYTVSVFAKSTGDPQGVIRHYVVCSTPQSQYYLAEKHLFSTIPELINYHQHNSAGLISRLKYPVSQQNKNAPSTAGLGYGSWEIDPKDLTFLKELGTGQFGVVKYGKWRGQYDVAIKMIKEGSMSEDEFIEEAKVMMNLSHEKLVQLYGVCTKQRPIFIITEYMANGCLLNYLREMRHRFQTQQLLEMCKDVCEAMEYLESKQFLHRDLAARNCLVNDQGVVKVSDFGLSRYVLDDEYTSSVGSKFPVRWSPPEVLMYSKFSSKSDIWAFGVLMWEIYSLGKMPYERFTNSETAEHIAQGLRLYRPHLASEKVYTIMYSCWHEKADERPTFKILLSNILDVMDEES
Target sequence in this assay (Q96SW2 whole entry partner): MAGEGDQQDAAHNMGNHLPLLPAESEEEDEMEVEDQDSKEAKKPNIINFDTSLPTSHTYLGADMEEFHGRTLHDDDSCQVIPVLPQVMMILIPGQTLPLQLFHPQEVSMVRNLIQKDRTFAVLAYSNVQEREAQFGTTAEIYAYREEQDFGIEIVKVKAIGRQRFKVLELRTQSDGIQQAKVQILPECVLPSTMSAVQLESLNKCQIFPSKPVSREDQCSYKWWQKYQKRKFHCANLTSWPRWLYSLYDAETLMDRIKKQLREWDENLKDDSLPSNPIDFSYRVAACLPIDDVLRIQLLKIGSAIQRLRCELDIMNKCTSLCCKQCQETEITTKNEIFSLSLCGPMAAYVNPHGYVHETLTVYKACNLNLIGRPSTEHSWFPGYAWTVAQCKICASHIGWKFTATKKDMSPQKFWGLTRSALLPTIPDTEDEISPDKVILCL

[2] = molecular target: T1, Protein cereblon/Tyrosine-protein kinase BTK; experiment: PROTAC activity at BTK/CRBN in human MINO cells assessed as BTK protein degradation at 20 nM by Western blotting analysis; format: cell-based; conditions: time lower 2.0 hrs, time upper […], TDE = time-dependent effect
Target sequence in this assay (Q06187 2-659 limits assumed): as the sequence (Q06187 2-659 limits assumed) above
Target sequence in this assay (Q96SW2 whole entry partner): as the sequence (Q96SW2 whole entry partner) above

[3] = molecular target: T1, Protein cereblon/Tyrosine-protein kinase BTK; experiment: PROTAC activity at BTK/CRBN in human MINO cells assessed as BTK protein degradation at 20 nM measured after 2 hrs by Western blotting analysis; format: cell-based
Target sequence in this assay (Q06187 2-659 limits assumed): as the sequence (Q06187 2-659 limits assumed) above
Target sequence in this assay (Q96SW2 whole entry partner): as the sequence (Q96SW2 whole entry partner) above

[4] = molecular target: T1, Protein cereblon/Tyrosine-protein kinase BTK; experiment: PROTAC activity at BTK/CRBN in human MINO cells assessed as BTK protein degradation by measuring onset time activity at 20 nM by Western blotting analysis; format: cell-based
Target sequence in this assay (Q06187 2-659 limits assumed): as the sequence (Q06187 2-659 limits assumed) above
Target sequence in this assay (Q96SW2 whole entry partner): as the sequence (Q96SW2 whole entry partner) above

[5] = molecular target: T1, Protein cereblon/Tyrosine-protein kinase BTK; experiment: PROTAC activity at BTK/CRBN in human MINO cells assessed as BTK protein degradation measured for 4 hrs by Western blotting analysis; format: cell-based
Target sequence in this assay (Q06187 whole entry): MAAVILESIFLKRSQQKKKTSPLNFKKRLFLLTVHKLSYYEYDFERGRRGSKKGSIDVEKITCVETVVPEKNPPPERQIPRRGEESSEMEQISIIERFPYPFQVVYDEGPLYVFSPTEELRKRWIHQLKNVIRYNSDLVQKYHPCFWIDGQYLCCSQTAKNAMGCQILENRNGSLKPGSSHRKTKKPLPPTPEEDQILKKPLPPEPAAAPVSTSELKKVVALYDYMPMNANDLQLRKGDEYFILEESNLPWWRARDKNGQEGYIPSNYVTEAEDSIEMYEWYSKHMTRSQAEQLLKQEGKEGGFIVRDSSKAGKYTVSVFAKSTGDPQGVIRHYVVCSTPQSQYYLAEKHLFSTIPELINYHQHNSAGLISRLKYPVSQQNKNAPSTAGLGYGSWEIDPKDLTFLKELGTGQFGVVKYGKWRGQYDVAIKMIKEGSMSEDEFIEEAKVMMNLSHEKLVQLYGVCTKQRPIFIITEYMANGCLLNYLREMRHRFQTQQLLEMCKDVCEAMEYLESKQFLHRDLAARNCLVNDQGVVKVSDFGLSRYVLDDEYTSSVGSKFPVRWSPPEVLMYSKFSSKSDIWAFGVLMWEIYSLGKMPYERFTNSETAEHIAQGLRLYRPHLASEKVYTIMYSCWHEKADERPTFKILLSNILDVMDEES
Target sequence in this assay (Q96SW2 whole entry): as the sequence (Q96SW2 whole entry partner) above

[6] = molecular target: Tyrosine-protein kinase BTK (Homo sapiens, UniProt Q06187); experiment: Inhibition of BTK (unknown origin) measured after 60 mins incubation by microtiter-plate reader
Sequence of Tyrosine-protein kinase BTK (Q06187 whole entry): as the sequence (Q06187 whole entry) above

Protein cereblon = Protein cereblon (Homo sapiens, UniProt Q96SW2); experiment: Inhibition of CRBN (unknown origin) measured after 60 mins incubation by BMG reader
Sequence of Protein cereblon (Q96SW2 whole entry): as the sequence (Q96SW2 whole entry partner) above

[7] = molecular target: T1, Protein cereblon/Tyrosine-protein kinase BTK; experiment: Binding affinity to BTK/CRBN (unknown origin) assessed as ternary complex formation measured after 60 mins incubation by HTRF assay
Target sequence in this assay (Q06187 whole entry): as the sequence (Q06187 whole entry) above
Target sequence in this assay (Q96SW2 whole entry): as the sequence (Q96SW2 whole entry partner) above

[8] = molecular target: T1, Protein cereblon/Tyrosine-protein kinase BTK; experiment: Binding affinity to BTK/CRBN (unknown origin) assessed as ternary complex formation by measuring peak HTRF ratio at wavelength 665/620 nm measured after 60 mins incubation by HTRF assay
Target sequence in this assay (Q06187 2-659 limits assumed): as the sequence (Q06187 2-659 limits assumed) above
Target sequence in this assay (Q96SW2 whole entry partner): as the sequence (Q96SW2 whole entry partner) above

[9] = molecular target: T1, Protein cereblon/Tyrosine-protein kinase BTK; experiment: Binding affinity to BTK/CRBN (unknown origin) assessed as ternary complex formation by measuring peak concentration measured after 60 mins incubation by HTRF assay
Target sequence in this assay (Q06187 2-659 limits assumed): as the sequence (Q06187 2-659 limits assumed) above
Target sequence in this assay (Q96SW2 whole entry partner): as the sequence (Q96SW2 whole entry partner) above

[10] = molecular target: T1, Protein cereblon/Tyrosine-protein kinase BTK; experiment: PROTAC activity at BTK/CRBN in human MINO cells assessed as BTK protein degradation pretreated with 2 uM ibrutinib followed by 1 hr treated at 20 nM measured after 48 hrs by Western blotting analysis; format: cell-based; conditions: dose […]
[11] = molecular target: T1, Protein cereblon/Tyrosine-protein kinase BTK; experiment: PROTAC activity at BTK/CRBN in human MINO cells assessed as BTK protein degradation pretreated with 2 uM pomalidomide followed by 1 hr treated at 20 nM measured after 48 hrs by Western blotting analysis; format: cell-based; conditions: dose […]
[12] = molecular target: T1, Protein cereblon/Tyrosine-protein kinase BTK; experiment: PROTAC activity at BTK/CRBN in human MINO cells assessed as BTK protein degradation pretreated with 2 uM MG132 followed by 1 hr treated at 20 nM measured after 48 hrs by Western blotting analysis; format: cell-based; conditions: dose […]
[13] = molecular target: T1, Protein cereblon/Tyrosine-protein kinase BTK; experiment: PROTAC activity at BTK/CRBN in human MINO cells assessed as BTK protein degradation pretreated with 2 uM bafilomycin followed by 1 hr treated at 20 nM measured after 48 hrs by Western blotting analysis; format: cell-based; conditions: dose […]
[14] = molecular target: T2, Protein cereblon/Tyrosine-protein kinase BTK (Mus musculus) (UniProt P35991+Q8C7D2); experiment: PROTAC activity at BTK/CRBN in mCSF/RANKL-stimulated C57BL/6J mouse BMDM assessed as BTK protein degradation at 25 to 100 nM followed by stimulated with mCSF/RANKL measured after 2 hrs by Western blotting analysis; format: cell-based; conditions: dose 25-100 nM
T2 sequence (P35991 whole entry, looked up): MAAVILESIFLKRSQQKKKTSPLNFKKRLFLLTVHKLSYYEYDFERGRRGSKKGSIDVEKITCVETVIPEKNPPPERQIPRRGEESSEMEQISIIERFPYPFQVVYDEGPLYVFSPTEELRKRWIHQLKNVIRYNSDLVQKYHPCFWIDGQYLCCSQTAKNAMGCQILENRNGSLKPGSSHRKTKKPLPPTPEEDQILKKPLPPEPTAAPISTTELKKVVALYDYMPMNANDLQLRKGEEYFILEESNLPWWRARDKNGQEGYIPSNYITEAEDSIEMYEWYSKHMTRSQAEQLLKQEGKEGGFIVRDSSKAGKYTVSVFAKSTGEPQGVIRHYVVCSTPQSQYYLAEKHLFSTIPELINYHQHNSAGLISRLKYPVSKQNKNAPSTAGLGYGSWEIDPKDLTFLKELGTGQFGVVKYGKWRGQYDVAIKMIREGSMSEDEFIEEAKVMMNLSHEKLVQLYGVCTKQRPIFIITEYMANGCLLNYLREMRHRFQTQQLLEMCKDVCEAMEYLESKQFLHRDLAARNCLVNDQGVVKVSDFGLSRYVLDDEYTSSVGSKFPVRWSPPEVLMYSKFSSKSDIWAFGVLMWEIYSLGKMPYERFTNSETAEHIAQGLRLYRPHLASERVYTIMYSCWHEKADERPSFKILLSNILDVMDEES
T2 sequence (Q8C7D2 whole entry, looked up): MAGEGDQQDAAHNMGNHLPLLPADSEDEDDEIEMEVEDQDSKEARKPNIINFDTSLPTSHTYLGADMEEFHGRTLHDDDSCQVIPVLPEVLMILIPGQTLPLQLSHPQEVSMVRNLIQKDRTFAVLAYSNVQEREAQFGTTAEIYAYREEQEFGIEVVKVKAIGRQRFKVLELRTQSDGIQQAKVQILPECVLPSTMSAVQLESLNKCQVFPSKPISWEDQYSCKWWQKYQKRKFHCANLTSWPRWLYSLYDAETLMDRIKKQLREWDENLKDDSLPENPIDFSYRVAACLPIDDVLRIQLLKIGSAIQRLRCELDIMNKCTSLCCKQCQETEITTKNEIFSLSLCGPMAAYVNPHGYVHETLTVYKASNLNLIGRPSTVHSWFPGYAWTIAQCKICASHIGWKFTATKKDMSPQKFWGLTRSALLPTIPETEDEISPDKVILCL

[15] = molecular target: T2, Protein cereblon/Tyrosine-protein kinase BTK (Mus musculus); experiment: PROTAC activity at BTK/CRBN in mCSF/RANKL-stimulated C57BL/6J mouse BMDM assessed as reduction in phosphorylated BTK protein level at 25 to 100 nM followed by stimulated with mCSF/RANKL measured after 2 hrs by Western blotting analysis; format: cell-based; conditions: dose 25-100 nM
[16] = molecular target: T2, Protein cereblon/Tyrosine-protein kinase BTK (Mus musculus); experiment: PROTAC activity at BTK/CRBN in mCSF/RANKL-stimulated C57BL/6J mouse BMDM assessed as reduction in phosphorylated ERK protein level at 25 to 100 nM followed by stimulated with mCSF/RANKL measured after 2 hrs by Western blotting analysis; format: cell-based; conditions: dose 25-100 nM
[17] = molecular target: T2, Protein cereblon/Tyrosine-protein kinase BTK (Mus musculus); experiment: PROTAC activity at BTK/CRBN in mCSF/RANKL-stimulated C57BL/6J mouse BMDM assessed as reduction in phosphorylated NFkappa-p65 protein level at 25 to 100 nM followed by stimulated with mCSF/RANKL measured after 2 hrs by Western blotting analysis; format: cell-based; conditions: dose 25-100 nM
BMMC [18] = experiment: Inhibition of RANKKL-induced upregulation of osteoclast related genes in C57BL/6J mouse BMM cells assessed as reduction in mCSF/RANKL-stimulated TRAP gene expression at 25 to 100 nM followed by stimulated with mCSF/RANKL measured after 2 hrs by qPCR analysis; format: functional, cell-based; conditions: dose 25-100 nM
BMMC [19] = experiment: Inhibition of RANKKL-induced upregulation of osteoclast related genes in C57BL/6J mouse BMM cells assessed as reduction in mCSF/RANKL-stimulated CTSK gene expression at 25 to 100 nM followed by stimulated with mCSF/RANKL measured after 2 hrs by qPCR analysis; format: functional, cell-based; conditions: dose 25-100 nM
BMMC [20] = experiment: Inhibition of RANKKL-induced upregulation of osteoclast related genes in C57BL/6J mouse BMM cells assessed as reduction in mCSF/RANKL-stimulated NFATc1 gene expression at 25 to 100 nM followed by stimulated with mCSF/RANKL measured after 2 hrs by qPCR analysis; format: functional, cell-based; conditions: dose 25-100 nM
[21] = molecular target: T2, Protein cereblon/Tyrosine-protein kinase BTK (Mus musculus); experiment: PROTAC activity at BTK/CRBN in C57BL/6J mouse BMM cells assessed as reduction in mCSF/RANKL-stimulated c-Fos protein expression at 25 to 100 nM followed by stimulated with mCSF/RANKL measured after 2 hrs by Western blot analysis; format: cell-based; conditions: BMDM, dose 25-100 nM
BMMC [22] = experiment: Inhibition of osteoclastogenesis in C57BL/6J mouse BMM cells assessed as inhibition of mCSF/RANKL-stimulated matured osteoclast formation measured after 5 days co-incubation by tartrate-resistant acid phosphatase (TRAP) staining assay; format: functional, cell-based; conditions: time 5.0 day
Mus musculus = experiment: Antiosteoclastogenic effects in LPS-soaked ligature-induced C57BL/6J mouse periodontal disease model assessed as reduction in periodontal alveolar bone loss at 10 mg/kg, ip treated on day 0, 1,4, 7 and measured on day 10 by Micro-CT 3D scan; format: functional, organism-based; conditions: time 7.0 day
[23] = AUC (0 to infinity) in Sprague-Dawley rat at 4 mg/kg, ip measured upto 48 hrs; format: ADME, organism-based; conditions: in vivo
[24] = Half life in Sprague-Dawley rat at 4 mg/kg, ip measured upto 48 hrs; format: ADME, organism-based; conditions: in vivo
[25] = Apparent volume of distribution in Sprague-Dawley rat at 4 mg/kg, ip measured upto 48 hrs; format: ADME, organism-based; conditions: in vivo
[26] = Clearance in Sprague-Dawley rat at 4 mg/kg, ip measured upto 48 hrs; conditions: in vivo
[27] = Bioavailability in Sprague-Dawley rat at 4 mg/kg, ip measured upto 48 hrs; format: ADME, organism-based; conditions: in vivo
[28] = AUC (0 to infinity) in Sprague-Dawley rat at 2 mg/kg, iv measured upto 48 hrs; format: ADME, organism-based; conditions: in vivo

- Activity [1]: 99%
- Activity [2]: Tde
- Activity [3]: Active
- TIME [4]: < 0.5 h
- DC50 [5]: 1.29 nM
- IC50 [6]: 299 nM
- IC50 (Protein cereblon): 248 nM
- EC50 [7]: 4.28 nM
- Ratio [8]: 8.59
- Activity [9]: 12.3 nM
- Activity [10]: inactive
- Activity [11]: inactive
- Activity [12]: inactive
- Activity [13]: inactive
- Activity [14]: inactive
- Activity [15]: Active
- Activity [16]: Active
- Activity [17]: Active
- Activity [21]: Active
- AUC(0-inf) [23]: 3090 ng·h/mL
- half-life [24]: 13.6 h
- Vz [25]: 30.04 L/kg
- CL/F at 48 h [26]: 25.8 mL/min/kg
- bioavailability [27]: 65.7%
- AUC(0-inf) [28]: 2350 ng·h/mL
SMILES: Cc1cc(-c2nc(Nc3cnn(C4CCN(CC5CCN(c6ccc7c(c6)C(=O)N(C6CCC(=O)NC6=O)C7=O)CC5)CC4)c3)ncc2F)ccc1CNC(=O)c1cn(C(C)(C)C)nn1 (stereo not given)
- inhibition (BMMC [18]): Active
- inhibition (BMMC [19]): Active
- Activity (BMMC [20]): Active
- inhibition (BMMC [22]): Active
- Activity (Mus musculus): Active
